Test results from US20070149570A1, “Piperidine derivative and use thereof” (priority 2005, published 2007).
pIC50: −log10 of the molar value. Where a name gives a salt, the structure may show the parent alone.

Key:
substance P receptors = molecular target: T1, substance P receptors (Homo sapiens, UniProt P25103); experiment: Radioligand receptor binding inhibitory activity using receptor from human lymphoblast cells (IM-9), 125I-BHSP; conditions: radioligand 125I-BHSP, 25° C., 30 minutes, read-out: IC50 (concentration necessary to cause 50% inhibition)
T1 construct: The receptor was prepared from human lymphoblast cells (IM-9); endogenous in cells; host or cells: IM-9 human lymphoblast cells (membrane preparation)
Description: Radioligand receptor binding inhibitory activity (Binding inhibitory activity using receptor from human lymphoblast cells (IM-9))
The method of M. A. Cascieri et al., [Molecular Pharmacology, vol. 42, p. […] The receptor was prepared from human lymphoblast cells (IM-9). IM-9 cells (2×10^5 cells/mL) were incubated for 3 days (one liter), which was then subjected to centrifugation for 5 minutes at 500×G to obtain cell pellets. […] The residue was washed twice with 30 mL of the above-mentioned buffer, which was then preserved frozen (−80° C.) as a specimen of the receptor.
The specimen was suspended in a reaction buffer (50 mM Tri-HCl buffer (pH 7.4), 0.02% bovine serum albumin, 1 mM phenylmethylsulfonyl fluoride, 2 μg/mL chymostatin, 40 μg/mL bacitracin and 3 mM manganese chloride) to have protein in the concentration of 0.5 mg/mL of protein and 100 μL portion of the suspension was used in the reaction. […] The amount of nonspecific binding was determined by adding substance P at a final concentration of 2×10^−6 M.
After the reaction, using a cell harvester (290 PHD, Cambridge Technology, Inc., U.S.A.), filtration was carried out through a glass filter (GF/B, Whatman, U.S.A.), which was immersed in 0.1% polyethyleneimine for 24 hours and dried. After washing three times with 250 μL of 50 mM Tris-HCl buffer (pH 7.4) containing 0.02% bovine serum albumin, the radioactivity remaining on the filter was determined with a gamma counter.

T1 sequence (P25103 whole entry): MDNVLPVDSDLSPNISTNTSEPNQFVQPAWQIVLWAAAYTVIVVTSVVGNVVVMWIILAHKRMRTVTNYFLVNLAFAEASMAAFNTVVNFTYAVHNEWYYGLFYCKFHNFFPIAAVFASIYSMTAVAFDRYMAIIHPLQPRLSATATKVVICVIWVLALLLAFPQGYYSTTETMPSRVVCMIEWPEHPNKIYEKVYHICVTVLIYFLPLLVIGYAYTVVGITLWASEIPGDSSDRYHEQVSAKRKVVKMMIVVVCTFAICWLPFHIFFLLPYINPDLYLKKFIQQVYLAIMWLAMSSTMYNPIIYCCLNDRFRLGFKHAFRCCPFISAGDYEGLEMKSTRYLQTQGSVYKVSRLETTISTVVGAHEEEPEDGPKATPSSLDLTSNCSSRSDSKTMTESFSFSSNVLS

| SMILES | melting point | pIC50 (substance P receptors) |
| --- | --- | --- |
| O=C1CC(C(=O)N2CC[C@H](NCc3cc(-c4ccc(Cl)cc4F)ccc3OC(F)(F)F)[C@H](c3ccccc3)C2)CC(=O)N1 (as salt: hydrochloride) [Example 132, 4-{[(3R,4S)-4-({[4′-chloro-2′-fluoro-4-(trifluoromethoxy)biphenyl-3-yl]methyl}amino)-3-phenylpiperidin-1-yl]carbonyl}piperidine-2,6-dione] | 162 to 164 °C | – |
| CC1(C)OC(=O)N(CC(=O)N2CC[C@H](NCc3cc(-c4ccc(C#N)cc4F)ccc3OC(F)(F)F)[C@H](c3ccccc3)C2)C1=O (as salt: hydrochloride) (hydrate or solvate) [Example 97, 3′-[({(3R,4S)-1-[(5,5-dimethyl-2,4-dioxo-1,3-oxazolidin-3-yl)acetyl]-3-phenylpiperidin-4-yl}amino)methyl]-2-fluoro-4′-(trifluoromethoxy)biphenyl-4-carbonitrile] | 198 to 200 °C | – |
| Cl.O=C1CC(C(=O)N2CC[C@H](NCc3cc(-c4ccc(Cl)cc4)ccc3OC(F)(F)F)[C@H](c3ccccc3)C2)CC(=O)N1 | 153 °C | – |
| N#Cc1ccc(-c2ccc(OC(F)(F)F)c(CN[C@H]3CCN(C(=O)CO)C[C@H]3c3ccccc3)c2)c(F)c1 [Example 100, 2-fluoro-3′-({[(3R,4S)-1-glycoloyl-3-phenylpiperidin-4-yl]amino}methyl)-4′-(trifluoromethoxy)biphenyl-4-carbonitrile] | 132 to 134 °C | 10.82 |
| CC1(C)OC(=O)N(CC(=O)N2CC[C@H](NCc3cc(-c4ccc(C#N)cc4)ccc3OC(F)(F)F)[C@H](c3ccccc3)C2)C1=O (as salt: hydrochloride) (hydrate or solvate) [Example 137, 3′-[({(3R,4S)-1-[(5,5-dimethyl-2,4-dioxo-1,3-oxazolidin-3-yl)acetyl]-3-phenylpiperidin-4-yl}amino)methyl]-4′-(trifluoromethoxy)biphenyl-4-carbonitrile] | 197 to 199 °C | – |
| N#Cc1ccc(-c2ccc(OC(F)(F)F)c(CN[C@H]3CCN(C(=O)C(N)=O)C[C@H]3c3ccccc3)c2)c(F)c1 [Example 104, 2-[(3R,4S)-4-({[4′-cyano-2′-fluoro-4-(trifluoromethoxy)biphenyl-3-yl]methyl}amino)-3-phenylpiperidin-1-yl]-2-oxoacetamide] | 142 to 144 °C | 10.72 |
